Laboratory results reported in patent publication US7601716B2, “Pyridopyrazines and derivatives thereof as ALK and c-Met inhibitors” (Cephalon, Inc., priority 2006, dated 2009).
Counter-ions that a name gives are not always drawn.

How the values were obtained:
[1] = biological target: T1, c-Met (cytoplasmic domain) (Homo sapiens, UniProt P08581); experiment: c-Met Kinase Assay (ELISA/TRF, PLC-γ substrate); assay type: biochemical; details: 3 μM ATP (Km level); read-out: c-Met Kinase Inhibition (IC50)
T1 construct: Reactions were initiated with 30 ng/mL c-Met (cytoplasmic domain, Invitrogen Corporation #PV3143); purchased Invitrogen Corporation PV3143
T1 sequence (P08581 956-1390 limits assumed): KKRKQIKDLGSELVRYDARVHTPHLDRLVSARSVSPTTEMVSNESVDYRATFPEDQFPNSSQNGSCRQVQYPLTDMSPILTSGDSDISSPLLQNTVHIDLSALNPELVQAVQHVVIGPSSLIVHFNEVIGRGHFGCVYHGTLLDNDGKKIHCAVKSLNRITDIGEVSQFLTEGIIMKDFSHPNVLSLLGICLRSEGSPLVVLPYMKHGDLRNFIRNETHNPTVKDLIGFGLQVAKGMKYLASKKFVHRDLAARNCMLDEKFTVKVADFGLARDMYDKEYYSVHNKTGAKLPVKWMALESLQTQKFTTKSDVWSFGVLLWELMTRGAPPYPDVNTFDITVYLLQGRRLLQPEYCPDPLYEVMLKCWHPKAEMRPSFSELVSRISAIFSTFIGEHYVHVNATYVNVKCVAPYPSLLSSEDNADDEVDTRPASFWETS
Summary of the method: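 Readout is TRF of europium anti-phosphotyrosine (PT66) bound to GST–PLC-γ substrate coated at 10 μg/mL, after a 15 min, 37 °C reaction started with 30 ng/mL c-Met cytoplasmic domain. Percent inhibition plotted against log compound concentration and fitted (variable slope) for IC50.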

[2] = biological target: baculovirus-expressed ALK (Homo sapiens, UniProt Q9UM73); experiment: ALK Kinase Assay (ELISA/TRF, PLC-γ substrate); assay type: biochemical; details: read-out: ALK Kinase Inhibition (IC50); note: 1 µM ATP (Km level)
Chain of baculovirus-expressed ALK (Q9UM73 19-1620): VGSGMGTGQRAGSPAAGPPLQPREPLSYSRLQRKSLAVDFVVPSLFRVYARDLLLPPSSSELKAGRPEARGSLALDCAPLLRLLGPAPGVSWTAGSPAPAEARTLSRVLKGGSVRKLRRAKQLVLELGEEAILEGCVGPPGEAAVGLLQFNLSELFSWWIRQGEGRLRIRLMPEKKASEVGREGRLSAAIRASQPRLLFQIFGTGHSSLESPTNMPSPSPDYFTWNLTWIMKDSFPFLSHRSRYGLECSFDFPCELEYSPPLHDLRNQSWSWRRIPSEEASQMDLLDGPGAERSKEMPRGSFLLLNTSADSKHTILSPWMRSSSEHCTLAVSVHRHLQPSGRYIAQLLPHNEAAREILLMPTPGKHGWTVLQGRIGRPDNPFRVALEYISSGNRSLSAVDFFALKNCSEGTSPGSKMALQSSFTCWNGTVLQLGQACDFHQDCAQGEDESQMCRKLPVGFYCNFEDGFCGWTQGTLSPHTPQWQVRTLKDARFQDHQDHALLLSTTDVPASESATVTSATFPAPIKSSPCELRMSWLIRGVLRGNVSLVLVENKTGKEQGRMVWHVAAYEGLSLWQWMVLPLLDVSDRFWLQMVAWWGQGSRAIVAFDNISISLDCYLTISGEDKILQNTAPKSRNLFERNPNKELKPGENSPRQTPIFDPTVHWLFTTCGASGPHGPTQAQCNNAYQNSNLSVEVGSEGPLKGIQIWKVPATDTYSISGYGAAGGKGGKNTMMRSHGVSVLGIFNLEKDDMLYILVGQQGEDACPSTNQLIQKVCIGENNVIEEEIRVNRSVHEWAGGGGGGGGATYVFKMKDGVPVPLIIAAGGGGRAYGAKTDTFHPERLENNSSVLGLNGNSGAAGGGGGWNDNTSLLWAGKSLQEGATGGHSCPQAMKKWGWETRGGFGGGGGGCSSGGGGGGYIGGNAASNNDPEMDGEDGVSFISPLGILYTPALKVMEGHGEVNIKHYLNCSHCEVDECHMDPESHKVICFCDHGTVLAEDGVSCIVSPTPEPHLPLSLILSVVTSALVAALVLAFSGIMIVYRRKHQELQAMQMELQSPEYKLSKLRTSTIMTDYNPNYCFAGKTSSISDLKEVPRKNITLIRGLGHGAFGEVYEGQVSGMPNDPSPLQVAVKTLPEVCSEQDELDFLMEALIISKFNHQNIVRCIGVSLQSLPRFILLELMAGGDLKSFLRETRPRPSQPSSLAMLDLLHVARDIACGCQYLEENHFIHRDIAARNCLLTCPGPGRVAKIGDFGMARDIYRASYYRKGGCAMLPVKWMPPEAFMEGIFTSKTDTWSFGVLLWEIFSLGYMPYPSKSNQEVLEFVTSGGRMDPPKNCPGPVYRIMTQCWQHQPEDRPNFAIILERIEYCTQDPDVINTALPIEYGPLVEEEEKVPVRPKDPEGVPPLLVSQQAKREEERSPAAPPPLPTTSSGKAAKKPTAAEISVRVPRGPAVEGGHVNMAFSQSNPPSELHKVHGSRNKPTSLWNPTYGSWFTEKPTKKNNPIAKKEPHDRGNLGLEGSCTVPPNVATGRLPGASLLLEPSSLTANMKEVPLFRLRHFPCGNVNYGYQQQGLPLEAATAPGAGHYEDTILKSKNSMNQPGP
Summary of the method: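 Read-out: TRF of europium-labeled anti-phosphotyrosine antibody bound to phosphorylated GST–PLC-γ coated at 10 μg/mL. Kinase step used 30 ng/ml ALK, 37° C, 15 minutes. IC50 values fitted by nonlinear sigmoidal dose-response (variable slope).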

Row | Compound | melting point | IC50 [1] [µM] | IC50 [2] [µM]
1 | CN(C)CCCCNC(=O)c1ccc(-c2cnc3c(c2)N(Cc2c(Cl)cccc2Cl)C(=O)CN3)cc1 (as salt: trifluoroacetic acid salt) [Example 144, 4-[1-(2,6-Dichlorobenzyl)-2-oxo-1,2,3,4-tetrahydropyrido[2,3-b]pyrazin-7-yl]-N-(4-dimethylaminobutyl)benzamide, trifluoroacetic acid salt] | 147 °C |  | 
2 | Ic1cnc2c(c1)NCCN2 [Example 40, 7-Iodo-1,2,3,4-tetrahydropyrido[2,3-b]pyrazine] | 126 to 128 °C | > 100 | > 100
3 | O=C1CNc2ncc(I)cc2N1Cc1cc(F)c(F)cc1F [Example 81, 7-Iodo-1-(2,4,5-trifluorobenzyl)-3,4-dihydro-1H-pyrido[2,3-b]pyrazin-2-one] | 227 to 228 °C | > 100 | > 100
4 | O=C1CNc2ncc(I)cc2N1Cc1ccccc1 [Example 8, 1-Benzyl-7-iodo-3,4-dihydro-1H-pyrido[2,3-b]pyrazin-2-one] | 225 °C | > 100 | 10 to 100
5 | O=C(O)c1ccc(-c2cnc3c(c2)N(Cc2c(Cl)cccc2Cl)C(=O)CN3)cc1 [Example 140, 4-[1-(2,6-Dichlorobenzyl)-2-oxo-1,2,3,4-tetrahydropyrido[2,3-b]pyrazin-7-yl]benzoic acid] | > 200 °C | 1 to 10 | 1 to 10
6 | COC(=O)c1cccc(-c2cnc3c(c2)N(Cc2ccccc2)C(=O)CN3)c1 [Example 30, 3-(1-Benzyl-2-oxo-1,2,3,4-tetrahydropyrido[2,3-b]pyrazin-7-yl)benzoic acid methyl ester] | 211 °C | 10 to 100 | 1 to 10
7 | Fc1ccc(F)c(CN2CCNc3ncc(I)cc32)c1 [Example 62, 1-(2,5-Difluorobenzyl)-7-iodo-1,2,3,4-tetrahydropyrido[2,3-b]pyrazine] | 175 °C | 10 to 100 | 1 to 10
8 | CCOC(=O)c1ccc(-c2cnc3c(c2)N(Cc2cc(F)ccc2F)CCN3)cc1 [Example 63, 4-[1-(2,5-Difluorobenzyl)-1,2,3,4-tetrahydropyrido[2,3-b]pyrazin-7-yl]benzoic acid ethyl ester] | 173 to 174 °C | > 100 | 0.1 to 1
9 | Fc1ccc(F)c(CN2CCNc3ncc(-c4ccc(N5CCOCC5)cc4)cc32)c1Cl [Example 108, 1-(2-Chloro-3,6-difluorobenzyl)-7-(4-morpholin-4-yl-phenyl)-1,2,3,4-tetrahydropyrido[2,3-b]pyrazine] | 217 to 219 °C | 10 to 100 | < 0.1
10 | CN1CCN(c2ccc(-c3cnc4c(c3)N(Cc3c(F)ccc(F)c3Cl)CC(=O)N4)cn2)CC1 [Example 437, 1-(2-Chloro-3,6-difluorobenzyl)-7-[6-(4-methylpiperazin-1-yl)pyridin-3-yl]-1,4-dihydro-2H-pyrido[2,3-b]pyrazin-3-one] | 235 to 236 °C (dec.) | 1 to 10 | 0.1 to 1
11 | CC1(C)Nc2ncc(I)cc2N(Cc2cc(F)ccc2F)C1=O [Example 92, 1-(2,5-Difluorobenzyl)-7-iodo-3,3-dimethyl-3,4-dihydro-1H-pyrido[2,3-b]pyrazin-2-one] | 198 to 201 °C | > 100 | > 100
12 | Fc1ccc(F)c(CN2CCNc3ncc(-c4ccc(N5CCOCC5)nc4)cc32)c1 [Example 70, 1-(2,5-Difluorobenzyl)-7-(6-morpholin-4-yl-pyridin-3-yl)-1,2,3,4-tetrahydropyrido[2,3-b]pyrazine] | 206 to 207 °C | 10 to 100 | 0.1 to 1
13 | CN(C)CCCCCCNC(=O)c1ccc(-c2cnc3c(c2)N(Cc2c(Cl)cccc2Cl)C(=O)CN3)cc1 (as salt: trifluoroacetic acid salt) [Example 143, 4-[1-(2,6-Dichlorobenzyl)-2-oxo-1,2,3,4-tetrahydropyrido[2,3-b]pyrazin-7-yl]-N-(6-dimethylaminohexyl)benzamide, trifluoroacetic acid salt] | 150 °C |  | 
14 | O=C(NCCN1CCCC1)c1ccc(-c2cnc3c(c2)N(Cc2ccccc2)C(=O)CN3)cc1 (as salt: trifluoroacetic acid salt) [Example 12, 4-(1-Benzyl-2-oxo-1,2,3,4-tetrahydropyrido[2,3-b]pyrazin-7-yl)-N-(2-pyrrolidin-1-yl-ethyl)benzamide, trifluoroacetic acid salt] | 107 °C |  | 
15 | O=C1CN(Cc2c(F)ccc(F)c2Cl)c2cc(Br)cnc2N1 [Example 436, 7-Bromo-1-(2-chloro-3,6-difluorobenzyl)-1,4-dihydro-2H-pyrido[2,3-b]pyrazin-3-one] | 214 to 216 °C (dec.) |  | 
16 | CC(c1cc(F)c(F)cc1F)N1C(=O)CNc2ncc(-c3ccc(C(=O)N4CCN(C)CC4)cc3)cc21 (centres unmarked) [Example 146, 7-[4-(4-Methylpiperazine-1-carbonyl)phenyl]-1-[1-(2,4,5-trifluorophenyl)ethyl]-3,4-dihydro-1H-pyrido[2,3-b]pyrazin-2-one, trifluoroacetic acid salt] |  | 10 to 100 | > 100
17 | O=C(c1cccc(-c2cnc3c(c2)N(Cc2ccccc2)C(=O)CN3)c1)N1CCCC1 [Example 20, 1-Benzyl-7-[3-(pyrrolidine-1-carbonyl)phenyl]-3,4-dihydro-1H-pyrido[2,3-b]pyrazin-2-one] |  | 10 to 100 | 1 to 10
18 | O=C(c1cnc2c(c1)N(Cc1cc(Cl)ccc1Cl)CCN2)N1CCN(c2cnccn2)CC1 [Example 241, [1-(2,5-Dichlorobenzyl)-1,2,3,4-tetrahydropyrido[2,3-b]pyrazin-7-yl]-(2,3,5,6-tetrahydro-[1,2′]bipyrazinyl-4-yl)methanone] |  | > 100 | 0.1 to 1
19 | CC(c1cc(F)ccc1F)N1C(=O)CNc2ncc(-c3ccc(C(=O)N4CCN(C)CC4)cc3)cc21 (centres unmarked) [Example 152, 1-[1-(2,5-Difluorophenyl)ethyl]-7-[4-(4-methylpiperazine-1-carbonyl)phenyl]-3,4-dihydro-1H-pyrido[2,3-b]pyrazin-2-one, trifluoroacetic acid salt] |  | 10 to 100 | 1 to 10
20 | O=C(NCc1ccc(-c2ccccc2)cc1)c1cnc2c(c1)N(Cc1cc(Cl)ccc1Cl)CCN2 [Example 249, 1-(2,5-Dichlorobenzyl)-1,2,3,4-tetrahydropyrido[2,3-b]pyrazine-7-carboxylic acid (biphenyl-4-ylmethyl)amide] |  | > 100 | 10 to 100
21 | COc1ccc(N2CCN(C(=O)c3cnc4c(c3)N(Cc3cc(Cl)ccc3Cl)CCN4)CC2)cc1 [Example 247, [1-(2,5-Dichlorobenzyl)-1,2,3,4-tetrahydropyrido[2,3-b]pyrazin-7-yl]-[4-(4-methoxyphenyl)piperazin-1-yl]methanone] |  | > 100 | 1 to 10
22 | CC(C)NC(=O)CN1CCN(C(=O)c2cnc3c(c2)N(Cc2cc(Cl)ccc2Cl)CCN3)CC1 [Example 236, 2-{4-[1-(2,5-Dichlorobenzyl)-1,2,3,4-tetrahydropyrido[2,3-b]pyrazine-7-carbonyl]piperazin-1-yl}-N-isopropylacetamide] |  | 10 to 100 | 1 to 10
23 | O=C1CNc2ncc(-c3cccnc3)cc2N1Cc1c(F)ccc(F)c1Cl [Example 4, 1-(2-Chloro-3,6-difluorobenzyl)-7-pyridin-3-yl-3,4-dihydro-1H-pyrido[2,3-b]pyrazin-2-one, trifluoroacetic acid salt] |  | 10 to 100 | 1 to 10
24 | Cc1cc(N2CCN(C(=O)c3cnc4c(c3)N(Cc3cc(Cl)ccc3Cl)CCN4)CC2)c2ccccc2n1 [Example 237, [1-(2,5-Dichlorobenzyl)-1,2,3,4-tetrahydropyrido[2,3-b]pyrazin-7-yl]-[4-(2-methylquinolin-4-yl)piperazin-1-yl]methanone] |  | 1 to 10 | 1 to 10
25 | O=C(c1cnc2c(c1)N(Cc1cc(Cl)ccc1Cl)CCN2)N1CCN(CCc2ccccc2)CC1 [Example 260, [1-(2,5-Dichlorobenzyl)-1,2,3,4-tetrahydropyrido[2,3-b]pyrazin-7-yl]-(4-phenethyl-piperazin-1-yl)methanone] |  | > 100 | 1 to 10
26 | NS(=O)(=O)c1ccc(CCNC(=O)c2cnc3c(c2)N(Cc2cc(Cl)ccc2Cl)CCN3)cc1 [Example 240, 1-(2,5-Dichlorobenzyl)-1,2,3,4-tetrahydropyrido[2,3-b]pyrazine-7-carboxylic acid [2-(4-sulfamoylphenyl)ethyl]amide] |  | > 100 | 0.1 to 1
27 | Clc1cccc(Cl)c1CN1CCNc2ncc(-c3cccnc3)cc21 [Example 138, 1-(2,6-Dichlorobenzyl)-7-pyridin-3-yl-1,2,3,4-tetrahydropyrido[2,3-b]pyrazine, trifluoroacetic acid salt] |  | 10 to 100 | 1 to 10
28 | CN1CCN(c2ccc(-c3cnc4c(c3)N(Cc3cccc(F)c3C(F)(F)F)CCN4)cn2)CC1 [Example 181, 1-[3-Fluoro-2-(trifluoromethyl)benzyl]-7-[6-(4-methylpiperazin-1-yl)pyridin-3-yl]-1,2,3,4-tetrahydropyrido[2,3-b]pyrazine] |  | 1 to 10 | 0.1 to 1
29 | O=C(O)c1cccc(-c2cnc3c(c2)N(Cc2ccccc2)C(=O)CN3)c1 [Example 31, 3-(1-Benzyl-2-oxo-1,2,3,4-tetrahydropyrido[2,3-b]pyrazin-7-yl)benzoic acid] |  | 10 to 100 | > 100
